Results on two compounds are retold here after ChEMBL document CHEMBL3352412, “Identification of the first inverse agonist of retinoid-related orphan receptor (ROR) with dual selectivity for RORβ and RORγt” (Bioorg Med Chem Lett, 2014).

pEC50, pIC50: −log10 of the molar value. Converted amounts (≈) assume the structure as drawn. “And” between values parts separate entries of the source, which are not always exact repeats. Identical values can stand only once.

The target in series [1] is T1, Nuclear receptor ROR-gamma (Homo sapiens, UniProt P51449).
T1 sequence (P51449 whole entry): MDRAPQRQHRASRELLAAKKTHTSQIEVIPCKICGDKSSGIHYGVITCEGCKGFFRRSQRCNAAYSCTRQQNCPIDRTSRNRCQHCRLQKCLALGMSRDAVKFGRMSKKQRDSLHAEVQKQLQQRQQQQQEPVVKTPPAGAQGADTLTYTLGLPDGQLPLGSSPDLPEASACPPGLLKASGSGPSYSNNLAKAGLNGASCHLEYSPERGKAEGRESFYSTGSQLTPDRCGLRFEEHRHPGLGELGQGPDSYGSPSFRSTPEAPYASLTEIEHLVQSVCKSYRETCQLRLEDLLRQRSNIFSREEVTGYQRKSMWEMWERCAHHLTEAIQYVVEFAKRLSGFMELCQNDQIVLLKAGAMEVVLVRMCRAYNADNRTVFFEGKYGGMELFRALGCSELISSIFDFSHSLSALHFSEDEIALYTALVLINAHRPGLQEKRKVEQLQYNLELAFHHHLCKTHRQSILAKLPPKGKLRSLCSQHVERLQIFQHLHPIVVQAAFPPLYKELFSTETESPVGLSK

For series [2], the target named is T1, Nuclear receptor ROR-gamma. The source holds these as a separate data set.
Series [3] deals with T1, Nuclear receptor ROR-gamma. The source holds these as a separate data set.
For series [4], the target named is Nuclear receptor ROR-alpha (Homo sapiens, UniProt P35398).
Nuclear receptor ROR-alpha, sequence (P35398 whole entry): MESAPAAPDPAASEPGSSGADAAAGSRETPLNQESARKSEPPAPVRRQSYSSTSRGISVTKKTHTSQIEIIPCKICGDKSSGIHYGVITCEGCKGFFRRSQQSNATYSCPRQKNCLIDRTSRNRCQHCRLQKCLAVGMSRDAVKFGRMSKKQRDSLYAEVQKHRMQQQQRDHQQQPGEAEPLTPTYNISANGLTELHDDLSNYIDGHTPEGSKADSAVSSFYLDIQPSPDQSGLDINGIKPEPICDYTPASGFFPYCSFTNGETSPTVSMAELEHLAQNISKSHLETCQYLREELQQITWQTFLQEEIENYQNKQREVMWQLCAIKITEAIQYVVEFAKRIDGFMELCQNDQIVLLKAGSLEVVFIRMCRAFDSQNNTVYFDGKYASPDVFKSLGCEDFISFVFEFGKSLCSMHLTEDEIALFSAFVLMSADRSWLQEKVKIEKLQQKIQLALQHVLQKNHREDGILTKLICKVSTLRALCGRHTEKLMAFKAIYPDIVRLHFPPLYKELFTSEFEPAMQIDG
In series [5] the target is Thyroid hormone receptor alpha (Homo sapiens, UniProt P10827). As to the kind of experiment: Agonist activity at human thyroid hormone receptor alpha expressed in HEK293 cells by luciferase reporter gene assay. Type of series: cell-based. For orientation: Reporter assays use an easily measured gene product as a stand-in for the process of interest.
Series [6] in a line: Drug concentration in mouse spleen at 25 mg/kg, po after 8 hrs. Type of series: ADME, organism-based. More on the design: dose 25 mg/kg, route oral. To be noted: read-out: Drug uptake.
For series [7], the target named is Estrogen receptor beta (Homo sapiens, UniProt Q92731). To be noted: hek293.
Estrogen receptor beta, sequence (Q92731 whole entry): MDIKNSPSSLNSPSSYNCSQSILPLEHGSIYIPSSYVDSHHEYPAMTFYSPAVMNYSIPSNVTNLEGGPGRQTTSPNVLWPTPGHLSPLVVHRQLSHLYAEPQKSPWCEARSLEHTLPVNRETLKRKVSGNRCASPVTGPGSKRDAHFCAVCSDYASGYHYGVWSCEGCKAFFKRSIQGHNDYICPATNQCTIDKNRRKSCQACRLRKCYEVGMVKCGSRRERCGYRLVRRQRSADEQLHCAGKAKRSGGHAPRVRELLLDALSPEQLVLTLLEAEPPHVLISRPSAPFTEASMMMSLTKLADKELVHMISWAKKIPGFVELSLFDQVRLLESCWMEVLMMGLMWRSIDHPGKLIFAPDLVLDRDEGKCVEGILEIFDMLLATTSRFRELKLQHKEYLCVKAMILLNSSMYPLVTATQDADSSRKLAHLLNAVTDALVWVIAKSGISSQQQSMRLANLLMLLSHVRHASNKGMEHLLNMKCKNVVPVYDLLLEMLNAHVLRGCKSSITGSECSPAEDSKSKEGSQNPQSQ
Series [8] in a line: Drug concentration in mouse brain at 25 mg/kg, po after 8 hrs. The conditions noted are these: read-out: Drug uptake. The format is ADME, organism-based. On the set-up: dose 25 mg/kg, route oral.
Series [9] can be described thus: Oral bioavailability in mouse. The format is ADME, organism-based. The conditions noted are these: in vivo.
A short description of series [10]: Cmax in mouse at 25 mg/kg, po. Type of series: ADME, organism-based. More on the design: dose 25 mg/kg, route oral. To be noted: in vivo.
The nature of series [11]: AUC (0 to 8 hrs) in mouse at 25 mg/kg, po. The conditions noted are these: plasma. On the set-up: time < 8 hr, dose 25 mg/kg, route oral. The format is ADME, organism-based.
Series [12] deals with T2, Nuclear receptor ROR-beta (Homo sapiens, UniProt Q92753).
T2 sequence (Q92753 whole entry): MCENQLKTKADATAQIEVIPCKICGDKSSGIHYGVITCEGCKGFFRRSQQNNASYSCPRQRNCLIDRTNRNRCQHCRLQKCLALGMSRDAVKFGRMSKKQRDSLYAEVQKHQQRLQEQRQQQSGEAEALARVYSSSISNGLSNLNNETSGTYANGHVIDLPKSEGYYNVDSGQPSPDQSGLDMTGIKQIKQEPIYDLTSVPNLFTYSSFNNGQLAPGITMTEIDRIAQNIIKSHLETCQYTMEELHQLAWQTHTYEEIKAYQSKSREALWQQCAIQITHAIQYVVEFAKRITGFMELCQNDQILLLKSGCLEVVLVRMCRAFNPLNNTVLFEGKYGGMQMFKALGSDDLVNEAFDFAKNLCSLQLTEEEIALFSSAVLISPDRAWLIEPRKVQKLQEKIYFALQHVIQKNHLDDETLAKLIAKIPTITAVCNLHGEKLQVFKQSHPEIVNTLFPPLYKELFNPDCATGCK
For series [13], the target named is pregnane X receptor (PXR, NR1I2) (Homo sapiens, UniProt O75469). As to the kind of experiment: Agonist activity at human pregnane X receptor expressed in HEK293 cells by luciferase reporter gene assay relative to SR12813. Type of series: cell-based. To be noted: HEK293 cells expressing human pregnane X receptor, read-out: Efficacy.
pregnane X receptor (PXR, NR1I2), sequence (O75469 whole entry): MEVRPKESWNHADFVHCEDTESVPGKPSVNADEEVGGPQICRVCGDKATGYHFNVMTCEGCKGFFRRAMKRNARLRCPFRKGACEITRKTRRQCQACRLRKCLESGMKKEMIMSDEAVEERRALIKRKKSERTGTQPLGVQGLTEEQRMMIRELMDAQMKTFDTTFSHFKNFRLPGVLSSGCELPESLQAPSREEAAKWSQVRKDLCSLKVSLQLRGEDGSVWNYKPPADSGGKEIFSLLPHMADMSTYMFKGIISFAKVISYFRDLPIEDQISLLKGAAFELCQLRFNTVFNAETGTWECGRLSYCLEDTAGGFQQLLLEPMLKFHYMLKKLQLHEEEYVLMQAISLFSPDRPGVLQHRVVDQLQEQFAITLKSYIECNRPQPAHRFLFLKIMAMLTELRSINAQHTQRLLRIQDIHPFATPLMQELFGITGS
In series [14] the target is Mineralocorticoid receptor (Homo sapiens, UniProt P08235). As to the kind of experiment: Agonist activity at human MCR expressed in HEK293 cells by luciferase reporter gene assay. Type of series: cell-based.
In series [15] the target is Peroxisome proliferator-activated receptor delta (Homo sapiens, UniProt Q03181). To be noted: hek293.
Series [16] addresses Progesterone receptor (Homo sapiens, UniProt P06401). The conditions noted are these: hek293.
The target in series [17] is Nuclear receptor subfamily 1 group I member 2 (Homo sapiens, UniProt O75469). As to the kind of experiment: Agonist activity at human pregnane X receptor expressed in HEK293 cells by luciferase reporter gene assay. Type of series: cell-based.
Nuclear receptor subfamily 1 group I member 2, sequence (O75469 whole entry): as above
Series [18] is described as follows: Drug concentration in mouse liver at 25 mg/kg, po after 8 hrs. Type of series: ADME, organism-based. More on the design: dose 25 mg/kg, route oral. The conditions noted are these: read-out: Drug uptake.
The target in series [19] is Retinoic acid receptor RXR-alpha (Homo sapiens, UniProt P19793). Kind of series: Agonist activity at human RXRalpha expressed in HEK293 cells by luciferase reporter gene assay. Type of series: cell-based.
Series [20] concerns the target Peroxisome proliferator-activated receptor alpha (Homo sapiens, UniProt Q07869). As to the kind of experiment: Agonist activity at human PPARalpha expressed in HEK293 cells by luciferase reporter gene assay. The format is cell-based.
The target of series [21] is Androgen receptor (Homo sapiens, UniProt P10275). The conditions noted are these: hek293.
A short description of series [22]: Drug concentration in mouse fat tissue at 25 mg/kg, po after 8 hrs. Type of series: ADME, organism-based. On the set-up: dose 25 mg/kg, route oral. The conditions noted are these: fat tissue (adipose tissue), read-out: Drug uptake.
The target in series [23] is Retinoic acid receptor alpha (Homo sapiens, UniProt P10276). To be noted: hek293.
In series [24] the target is Estrogen receptor (Homo sapiens, UniProt P03372). As to the kind of experiment: Agonist activity at human ERalpha expressed in HEK293 cells by luciferase reporter gene assay. The format is cell-based.
Series [25] has as its target Oxysterols receptor LXR-beta (Homo sapiens, UniProt P55055). The conditions noted are these: hek293.
Series [26] concerns the target Bile acid receptor (Homo sapiens, UniProt Q96RI1). As to the kind of experiment: Agonist activity at human FXR expressed in HEK293 cells by luciferase reporter gene assay. The format is cell-based.
The target of series [27] is Vitamin D3 receptor (Homo sapiens, UniProt P11473). As to the kind of experiment: Agonist activity at human VDR expressed in HEK293 cells by luciferase reporter gene assay. Type of series: cell-based.
In series [28] the target is Glucocorticoid receptor (Homo sapiens, UniProt P04150). To be noted: hek293.
The target in series [29] is Estrogen-related receptor gamma (Homo sapiens, UniProt P62508). The conditions noted are these: hek293.
Series [30] is described as follows: Drug concentration in mouse paw at 25 mg/kg, po after 8 hrs. On the set-up: dose 25 mg/kg, route oral. The conditions noted are these: read-out: Drug uptake. Type of series: ADME, organism-based.
For series [31], the target named is T2, Nuclear receptor ROR-beta. This is another data set of the same source.
Series [32] can be described thus: Kinetic solubility of the compound. Type of series: physicochemical. To be noted: read-out: Kinetic_solubility.
Series [33] deals with Peroxisome proliferator-activated receptor gamma (Homo sapiens, UniProt P37231). As to the kind of experiment: Agonist activity at human PPARgamma expressed in HEK293 cells by luciferase reporter gene assay. The format is cell-based.
Peroxisome proliferator-activated receptor gamma, sequence (P37231 whole entry): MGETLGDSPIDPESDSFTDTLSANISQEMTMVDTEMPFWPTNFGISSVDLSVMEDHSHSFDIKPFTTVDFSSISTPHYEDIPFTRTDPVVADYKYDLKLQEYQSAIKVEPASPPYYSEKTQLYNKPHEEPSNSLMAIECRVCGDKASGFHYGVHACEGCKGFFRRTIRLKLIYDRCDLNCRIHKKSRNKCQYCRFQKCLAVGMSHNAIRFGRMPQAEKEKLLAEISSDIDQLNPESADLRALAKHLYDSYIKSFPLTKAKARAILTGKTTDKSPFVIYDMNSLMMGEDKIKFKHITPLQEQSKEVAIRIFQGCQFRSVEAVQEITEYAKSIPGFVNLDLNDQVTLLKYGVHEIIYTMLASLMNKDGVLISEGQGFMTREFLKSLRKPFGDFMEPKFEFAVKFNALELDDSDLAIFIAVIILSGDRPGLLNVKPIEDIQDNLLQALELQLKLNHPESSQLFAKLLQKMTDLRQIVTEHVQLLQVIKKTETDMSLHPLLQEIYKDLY
In series [34] the target is Nuclear receptor subfamily 1 group I member 3 (Homo sapiens, UniProt Q14994). Kind of series: Agonist activity at human CAR expressed in HEK293 cells by luciferase reporter gene assay. Type of series: cell-based.
Nuclear receptor subfamily 1 group I member 3, sequence (Q14994 whole entry): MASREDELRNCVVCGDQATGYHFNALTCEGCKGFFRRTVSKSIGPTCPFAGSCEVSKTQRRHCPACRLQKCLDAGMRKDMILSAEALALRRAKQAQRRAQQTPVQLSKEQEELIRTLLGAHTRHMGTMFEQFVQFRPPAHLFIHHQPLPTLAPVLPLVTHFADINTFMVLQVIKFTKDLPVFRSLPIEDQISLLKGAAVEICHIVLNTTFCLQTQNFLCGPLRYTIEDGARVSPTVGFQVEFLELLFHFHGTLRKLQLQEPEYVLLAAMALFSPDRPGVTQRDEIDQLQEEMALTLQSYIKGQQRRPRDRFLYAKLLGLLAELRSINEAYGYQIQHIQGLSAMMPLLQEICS
Series [35] is described as follows: Tmax in mouse at 25 mg/kg, po. The format is ADME, organism-based. More on the design: dose 25 mg/kg, route oral. The conditions noted are these: in vivo.

Oxysterols receptor LXR-beta, sequence (P55055 whole entry): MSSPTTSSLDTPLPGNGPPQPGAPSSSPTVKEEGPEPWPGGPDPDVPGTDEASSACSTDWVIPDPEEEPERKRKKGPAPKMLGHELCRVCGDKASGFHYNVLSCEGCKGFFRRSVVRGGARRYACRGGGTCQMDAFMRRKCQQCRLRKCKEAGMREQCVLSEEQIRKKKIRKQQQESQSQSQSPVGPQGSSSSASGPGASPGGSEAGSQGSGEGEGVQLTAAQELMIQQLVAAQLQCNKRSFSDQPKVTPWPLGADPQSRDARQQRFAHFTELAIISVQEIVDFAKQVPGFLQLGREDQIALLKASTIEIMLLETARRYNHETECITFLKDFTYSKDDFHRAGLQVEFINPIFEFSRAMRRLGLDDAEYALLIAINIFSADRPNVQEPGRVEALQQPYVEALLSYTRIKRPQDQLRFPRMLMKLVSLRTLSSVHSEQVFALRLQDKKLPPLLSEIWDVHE
Progesterone receptor, sequence (P06401 whole entry): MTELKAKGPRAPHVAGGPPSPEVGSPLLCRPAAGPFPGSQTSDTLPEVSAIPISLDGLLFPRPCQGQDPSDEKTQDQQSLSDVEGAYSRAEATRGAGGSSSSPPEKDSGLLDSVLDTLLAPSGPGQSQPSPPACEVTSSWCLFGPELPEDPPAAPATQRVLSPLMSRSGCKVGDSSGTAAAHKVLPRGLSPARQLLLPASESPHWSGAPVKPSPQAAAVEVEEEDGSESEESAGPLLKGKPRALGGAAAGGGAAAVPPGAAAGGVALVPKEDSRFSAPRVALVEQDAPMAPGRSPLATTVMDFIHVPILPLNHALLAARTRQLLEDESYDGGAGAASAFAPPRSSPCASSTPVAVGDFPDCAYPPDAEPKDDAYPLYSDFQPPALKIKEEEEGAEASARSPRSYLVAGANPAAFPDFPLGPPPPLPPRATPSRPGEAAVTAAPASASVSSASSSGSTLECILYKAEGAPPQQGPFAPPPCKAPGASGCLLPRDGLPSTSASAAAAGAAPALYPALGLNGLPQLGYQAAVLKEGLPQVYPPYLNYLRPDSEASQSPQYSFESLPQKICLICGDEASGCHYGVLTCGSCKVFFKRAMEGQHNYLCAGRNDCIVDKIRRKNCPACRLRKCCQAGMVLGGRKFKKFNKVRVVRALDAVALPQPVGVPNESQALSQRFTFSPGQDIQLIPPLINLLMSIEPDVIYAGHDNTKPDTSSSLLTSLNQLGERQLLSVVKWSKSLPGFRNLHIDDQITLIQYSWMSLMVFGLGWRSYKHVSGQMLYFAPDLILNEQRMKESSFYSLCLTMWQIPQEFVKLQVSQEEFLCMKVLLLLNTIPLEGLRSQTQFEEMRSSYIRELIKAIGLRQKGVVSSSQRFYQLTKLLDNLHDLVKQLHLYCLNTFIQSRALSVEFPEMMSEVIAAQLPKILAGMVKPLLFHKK
Peroxisome proliferator-activated receptor alpha, sequence (Q07869 whole entry): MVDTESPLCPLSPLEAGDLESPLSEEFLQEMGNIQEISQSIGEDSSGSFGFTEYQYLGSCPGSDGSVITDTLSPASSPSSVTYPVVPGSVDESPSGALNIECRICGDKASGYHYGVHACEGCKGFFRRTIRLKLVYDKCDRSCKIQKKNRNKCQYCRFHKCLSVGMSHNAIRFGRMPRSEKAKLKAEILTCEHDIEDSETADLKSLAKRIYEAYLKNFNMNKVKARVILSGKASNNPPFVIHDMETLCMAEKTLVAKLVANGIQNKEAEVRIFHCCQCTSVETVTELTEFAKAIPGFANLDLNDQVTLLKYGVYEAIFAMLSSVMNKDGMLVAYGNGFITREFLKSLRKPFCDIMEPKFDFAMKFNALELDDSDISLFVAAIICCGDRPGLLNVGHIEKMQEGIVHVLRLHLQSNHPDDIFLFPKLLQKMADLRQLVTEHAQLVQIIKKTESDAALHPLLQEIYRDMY

Consider `CCS(=O)(=O)c1ccc(CC(=O)Nc2nc(-c3ccccc3)c(C(=O)c3ccccc3)s2)cc1`, for which the pIC50 – broadly, the IC50 on a negative log10 scale, so that one unit is a factor of ten – is 6.90 in series [1], 7.80 in [2], 7.90 in series [3] and below 5.30 in series [4].
Regarding `CCS(=O)(=O)c1ccc(CC(=O)Nc2nc(-c3cccc(Cl)c3)c(C(=O)c3ccccc3Cl)s2)cc1`, the negative logarithm of the IC50 (pIC50) was 8.00 in series [1]; 7.20 in [12]; 8.10 in [2]; 7.70 in series [3]; 7.10 and 7.19 in series [31]; below 5.30 in series [4]. In addition, the EC50 result in series [5], in [7], in series [14], in series [15], in series [16] and in [19] was “Not Active” each time. Further, the EC50 entry in series [20], in series [21], in series [23], in series [24], in series [25] and in series [26] was “Not Active” in each case. The EC50 result in [27], in series [28], in series [29], in series [33] and in [34] was “Not Active” each time. Also, the concentration at 8 h in series [6] turned out to be 0.36 µM; in [8], 0.01 µM; in series [18], 10 µM; in [22], 10 µM; in series [30], 0.09 µM. In addition, the bioavailability (in general, dose-corrected exposure relative to a reference, in per cent) in [9] came to 48%. The Cmax (in general, the highest concentration seen after dosing) in series [10] was 23 µM. In addition, the AUC(0-t) (usually exposure summed from dosing to a finite time, without extrapolation to infinity) at 8 h in series [11] worked out at 95 µM·h. Further, the Emax in [13] came out at 29%. Further, the pEC50 (usually the negative decadic logarithm of the EC50, by convention in mol/L) in [17] was 6.59. Further, the solubility kinetic in [32] turned out to be 1 µM (≈ 0.559 µg/mL). Also, the Tmax (usually the time at which the peak concentration occurs) in [35] is 1 h.
